Results: patent US20260274829A1, “NEW E3 UBIQUITIN LIGASE LIGAND, PROTEIN DEGRADATION AGENT AND USE THEREOF” (GLUETACS THERAPEUTICS (SHANGHAI) CO., LTD., priority 2023, published 2026)

Biological target: T1, human Cereblon WT GST-tagged protein (Homo sapiens, UniProt Q96SW2)
T1 construct: purchased CISBIO 64BDCRBNPEH
Test: CRBN binding, HTRF CEREBLON BINDING kit
Settings: CRBN binding, HTRF CEREBLON BINDING kit
Protocol: The CEREBLON BINDING kits (specification: 10,000 tests; product number: Catalog #64BDCRBNPEH; CISBIO company) was used to determine the CRBN binding ability of the compounds to be tested through a HTRF method (homogeneous time-resolved fluorescence). The specific methods are as follows: • 1. […] Then, 2.5 μL of human Cereblon WT GST-tagged protein solution was added to each well. Finally, 5 μL of the thoroughly mixed Thalidomide-Re reagent and GST Eu antibody working solution were added to each of the aforementioned wells. […] The blank control wells were sequentially added with 2.5 μL of diluent #9 (1×) solution, 2.5 μL of binding buffer, and 5 μL of thoroughly mixed Thalidomide-Re reagent and GST Eu antibody working solution. • 4. After sealing and incubating the solutions in the aforementioned wells at room temperature for 3 hours, the absorbance values at emission wavelengths of 620 nm and 665 nm were detected by the HTRF method using a Spark microplate reader (V3.1 SP1).
The corresponding CRBN binding inhibition rate was calculated using the following method:
[formula] [formula] [formula] • Note: OD 665 nmcompound is the absorbance value of each well of the compounds to be tested of the present disclosure at an emission wavelength of 665 nm. • OD 620 nmcompound is the absorbance value of each well of the compounds to be tested of the present disclosure at an emission wavelength of 620 nm. • OD 665 nmcontrol is the absorbance value of the blank control well at an emission wavelength of 665 nm. • OD 620 nmcontrol is the absorbance value of the blank control well at an emission wavelength of 620 nm. • OD 665 nmStd0 is the absorbance value of the solvent control well at an emission wavelength of 665 nm. • OD 620 nmStd0 is the absorbance value of the solvent control well at an emission wavelength of 620 nm.

T1 sequence (Q96SW2 whole entry): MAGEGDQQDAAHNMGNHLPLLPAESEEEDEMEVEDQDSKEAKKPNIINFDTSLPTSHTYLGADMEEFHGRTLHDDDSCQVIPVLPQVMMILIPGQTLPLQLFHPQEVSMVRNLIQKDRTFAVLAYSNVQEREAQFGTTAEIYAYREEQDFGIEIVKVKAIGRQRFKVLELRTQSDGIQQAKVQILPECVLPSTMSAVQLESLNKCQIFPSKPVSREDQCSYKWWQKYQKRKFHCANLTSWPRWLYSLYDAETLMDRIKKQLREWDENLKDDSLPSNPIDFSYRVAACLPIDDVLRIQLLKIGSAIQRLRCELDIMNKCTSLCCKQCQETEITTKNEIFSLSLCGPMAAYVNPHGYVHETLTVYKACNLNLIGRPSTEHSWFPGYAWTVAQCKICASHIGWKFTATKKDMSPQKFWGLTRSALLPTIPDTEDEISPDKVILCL

| SMILES | IC50 [µM] |
| --- | --- |
| CNC(=O)c1ccc(N2C(=S)N(c3ccc(C#N)c(C(F)(F)F)c3)C(=O)C2(C)C)cc1F [Enzalutamide] | > 10 |
| COc1cc(N2CCC(N3CCN(Cc4cccc(N5CCC(=O)NC5=O)c4)CC3)CC2)c(C)cc1Nc1ncc(Br)c(Nc2ccc3nccnc3c2P(C)(C)=O)n1 [GT-04260, 1-(3-((4-(1-(4-((5-bromo-4-((5-(dimethylphosphoryl)quinoxalin-6-yl)amino)pyrimidin-2-yl)amino)-5-methoxy-2-methylphenyl)piperidin-4-yl)piperazin-1-yl)methyl)phenyl)dihydropyrimidine-2,4(1H,3H)-dione] | 1 to 1.9 |
| COc1cc2nn(C3CCN(Cc4cccc(NC5CCC(=O)NC5=O)c4)CC3)cc2cc1NC(=O)c1cccc(C(F)(F)F)c1 (stereo not drawn) [GT-04749, N-(2-(1-(3-((2,6-dioxopiperidin-3-yl)amino)benzyl)piperidin-4-yl)-6-methoxy-2H-indazol-5-yl)-3-(trifluoromethyl)benzamide] | 1 to 1.9 |
| COc1cc2nn(C3CCN(Cc4cccc(N5CCC(=O)NC5=O)c4)CC3)cc2cc1NC(=O)c1cccc(C(F)(F)F)c1 [GT-04750, N-(2-(1-(3-(2,4-dioxotetrahydropyrimidin-1(2H)-yl)benzyl)piperidin-4-yl)-6-methoxy-2H-indazol-5-yl)-3-(trifluoromethyl)benzamide] | 1 to 1.9 |
| COc1cc2nn(C3CCN(Cc4ccc(N5CCC(=O)NC5=O)c(F)c4)CC3)cc2cc1NC(=O)c1cccc(C(F)(F)F)c1 [GT-04751, N-(2-(1-(4-(2,4-dioxotetrahydropyrimidin-1(2H)-yl)-3-fluorobenzyl)piperidin-4-yl)-6-methoxy-2H-indazol-5-yl)-3-(trifluoromethyl)benzamide] | 1 to 1.9 |
| COc1cc2nn(C3CCN(Cc4ccc(N5CCC(=O)NC5=O)cc4)CC3)cc2cc1NC(=O)c1cccc(C(F)(F)F)c1 [GT-04752, N-(2-(1-(4-(2,4-dioxotetrahydropyrimidin-1(2H)-yl)benzyl)piperidin-4-yl)-6-methoxy-2H-indazol-5-yl)-3-(trifluoromethyl)benzamide] | 1 to 1.9 |
| COc1cc2nn(C3CCN(Cc4ccc(N5CCC(=O)NC5=O)cc4F)CC3)cc2cc1NC(=O)c1cccc(C(F)(F)F)c1 [GT-04753, N-(2-(1-(4-(2,4-dioxotetrahydropyrimidin-1(2H)-yl)-2-fluorobenzyl)piperidin-4-yl)-6-methoxy-2H-indazol-5-yl)-3-(trifluoromethyl)benzamide] | 1 to 1.9 |
| COc1cc2nn(C3CCN(Cc4cccc(NC5CCC(=O)NC5=O)c4)CC3)cc2cc1NC(=O)c1cccc(C(F)(F)F)n1 (stereo not drawn) [GT-04763, N-(2-(1-(3-((2,6-dioxopiperidin-3-yl)amino)benzyl)piperidin-4-yl)-6-methoxy-2H-indazol-5-yl)-6-(trifluoromethyl)picolinamide] | 0.5 to 1 |
| COc1cc2nn(C3CCN(Cc4cccc(N5CCC(=O)NC5=O)c4)CC3)cc2cc1NC(=O)c1cccc(C(F)(F)F)n1 [GT-04774, N-(2-(1-(3-(2,4-dioxotetrahydropyrimidin-1(2H)-yl)benzyl)piperidin-4-yl)-6-methoxy-2H-indazol-5-yl)-6-(trifluoromethyl)picolinamide] | 1 to 1.9 |
| COc1cc2nn(C3CCN(Cc4ccc(N5CCC(=O)NC5=O)c(F)c4)CC3)cc2cc1NC(=O)c1cccc(C(F)(F)F)n1 [GT-04775, N-(2-(1-(4-(2,4-dioxotetrahydropyrimidin-1(2H)-yl)-3-fluorobenzyl)piperidin-4-yl)-6-methoxy-2H-indazol-5-yl)-6-(trifluoromethyl)picolinamide] | 1 to 1.9 |
| COc1cc2nn(C3CCN(Cc4ccc(N5CCC(=O)NC5=O)cc4F)CC3)cc2cc1NC(=O)c1cccc(C(F)(F)F)n1 [GT-04777, N-(2-(1-(4-(2,4-dioxotetrahydropyrimidin-1(2H)-yl)-2-fluorobenzyl)piperidin-4-yl)-6-methoxy-2H-indazol-5-yl)-6-(trifluoromethyl)picolinamide] | 1 to 1.9 |

Second part, the molecule after the results:

| IC50 [µM] | SMILES |
| --- | --- |
| 0.5 to 1 | COc1cc2nn(C3CCN(Cc4ccc(C5CCC(=O)NC5=O)cc4)CC3)cc2cc1NC(=O)c1cccc(C(F)(F)F)c1 (stereo not drawn) [GT-04747, N-(2-(1-(4-(2,6-dioxopiperidin-3-yl)benzyl)piperidin-4-yl)-6-methoxy-2H-indazol-5-yl)-3-(trifluoromethyl)benzamide] |
| 1 to 1.9 | COc1cc2nn(C3CCN(Cc4ccc(C5CCC(=O)NC5=O)c(F)c4)CC3)cc2cc1NC(=O)c1cccc(C(F)(F)F)c1 (stereo not drawn) [GT-04748, N-(2-(1-(4-(2,6-dioxopiperidin-3-yl)-3-fluorobenzyl)piperidin-4-yl)-6-methoxy-2H-indazol-5-yl)-3-(trifluoromethyl)benzamide] |
| 0.5 to 1 | COc1cc2nn(C3CCN(Cc4ccc(C5CCC(=O)NC5=O)cc4)CC3)cc2cc1NC(=O)c1cccc(C(F)(F)F)n1 (stereo not drawn) [GT-04761, N-(2-(1-(4-(2,6-dioxopiperidin-3-yl)benzyl)piperidin-4-yl)-6-methoxy-2H-indazol-5-yl)-6-(trifluoromethyl)picolinamide] |
| 1 to 1.9 | COc1cc2nn(C3CCN(Cc4ccc(C5CCC(=O)NC5=O)c(F)c4)CC3)cc2cc1NC(=O)c1cccc(C(F)(F)F)n1 (stereo not drawn) [GT-04762, N-(2-(1-(4-(2,6-dioxopiperidin-3-yl)-3-fluorobenzyl)piperidin-4-yl)-6-methoxy-2H-indazol-5-yl)-6-(trifluoromethyl)picolinamide] |
| 0.5 to 1 | NC(=O)c1ncc(N2CCCCC2)nc1Nc1ccc(C2CCN(Cc3ccc(C4CCC(=O)NC4=O)cc3)CC2)cc1 (stereo not drawn) [GT-04785, 3-((4-(1-(4-(2,6-dioxopiperidin-3-yl)benzyl)piperidin-4-yl)phenyl)amino)-5-(piperidin-1-yl)pyrazine-2-carboxamide] |
| < 0.5 | NC(=O)c1ncc(N2CCCCC2)nc1Nc1ccc(C2CCN(Cc3ccc(C4CCC(=O)NC4=O)c(F)c3)CC2)cc1 (stereo not drawn) [GT-04786, 3-((4-(1-(4-(2,6-dioxopiperidin-3-yl)-3-fluorobenzyl)piperidin-4-yl)phenyl)amino)-5-(piperidin-1-yl)pyrazine-2-carboxamide] |
| 0.5 to 1 | NC(=O)c1ncc(N2CCCCC2)nc1Nc1ccc(C2CCN(Cc3cccc(N4CCC(=O)NC4=O)c3)CC2)cc1 [GT-04787, 3-((4-(1-(3-(2,4-dioxotetrahydropyrimidin-1(2H)-yl)benzyl)piperidin-4-yl)phenyl)amino)-5-(piperidin-1-yl)pyrazine-2-carboxamide] |
| 0.5 to 1 | NC(=O)c1ncc(N2CCCCC2)nc1Nc1ccc(C2CCN(Cc3cccc(NC4CCC(=O)NC4=O)c3)CC2)cc1 (stereo not drawn) [GT-04791, 3-((4-(1-(3-((2,6-dioxopiperidin-3-yl)amino)benzyl)piperidin-4-yl)phenyl)amino)-5-(piperidin-1-yl)pyrazine-2-carboxamide] |
| < 0.5 | CN1CCN([C@@H]2CCCN(c3cnc(C(N)=O)c(Nc4ccc(C5CCN(Cc6ccc(C7CCC(=O)NC7=O)cc6)CC5)cc4)n3)C2)C1=O (stereo partly drawn) [GT-04798, 3-((4-(1-(4-(2,6-dioxopiperidin-3-yl)benzyl)piperidin-4-yl)phenyl)amino)-5-((R)-3-(3-methyl-2-oxoimidazolidin-1-yl)piperidin-1-yl)pyrazine-2-carboxamide] |
| < 0.5 | CN1CCN([C@@H]2CCCN(c3cnc(C(N)=O)c(Nc4ccc(C5CCN(Cc6ccc(C7CCC(=O)NC7=O)c(F)c6)CC5)cc4)n3)C2)C1=O (stereo partly drawn) [GT-04799, 3-((4-(1-(4-(2,6-dioxopiperidin-3-yl)-3-fluorobenzyl)piperidin-4-yl)phenyl)amino)-5-((R)-3-(3-methyl-2-oxoimidazolidin-1-yl)piperidin-1-yl)pyrazine-2-carboxamide] |
| 0.5 to 1 | CN1CCN([C@@H]2CCCN(c3cnc(C(N)=O)c(Nc4ccc(C5CCN(Cc6cccc(N7CCC(=O)NC7=O)c6)CC5)cc4)n3)C2)C1=O [GT-04800, (R)-3-((4-(1-(3-(2,4-dioxotetrahydropyrimidin-1(2H)-yl)benzyl)piperidin-4-yl)phenyl)amino)-5-(3-(3-methyl-2-oxoimidazolidin-1-yl)piperidin-1-yl)pyrazine-2-carboxamide] |
| < 0.5 | CN1CCN([C@@H]2CCCN(c3cnc(C(N)=O)c(Nc4ccc(C5CCN(Cc6ccc(N7CCC(=O)NC7=O)c(F)c6)CC5)cc4)n3)C2)C1=O [GT-04801, (R)-3-((4-(1-(4-(2,4-dioxotetrahydropyrimidin-1(2H)-yl)-3-fluorobenzyl)piperidin-4-yl)phenyl)amino)-5-(3-(3-methyl-2-oxoimidazolidin-1-yl)piperidin-1-yl)pyrazine-2-carboxamide] |
| 0.5 to 1 | CN1CCN([C@@H]2CCCN(c3cnc(C(N)=O)c(Nc4ccc(C5CCN(Cc6ccc(N7CCC(=O)NC7=O)cc6)CC5)cc4)n3)C2)C1=O [GT-04802, (R)-3-((4-(1-(4-(2,4-dioxotetrahydropyrimidin-1(2H)-yl)benzyl)piperidin-4-yl)phenyl)amino)-5-(3-(3-methyl-2-oxoimidazolidin-1-yl)piperidin-1-yl)pyrazine-2-carboxamide] |
